Source: patent US20110224276A1, “OPTICAL ISOMER OF PHENYLPROPIONIC ACID AND ITS MEDICINAL USE” (priority 2008, published 2011)

Legend:
ICR mice = assay: in vivo; conditions: LD50 ig compared with S
From the text: (§1) Each tested group includes 5 dose-groups during the tests as follows:
(§2) Intragastric administration (ig)
(§3) (3) Observed periods: 14 days

in vivo = conditions: mouse, in vivo, po
From the text: as §1, §2, §3

[1] = system: hot plate pain threshold of mice; assay: hot plate pain threshold of mice; type: in vivo; conditions: for pain threshold(s) 0 h: 0 h (base threshold before administration); for pain threshold(s) 0.5 h: 0.5 h after administration; for pain threshold(s) 1 h: 1 h after administration
Protocol: On the basis of preliminary test, 90 healthy Kunming species of Mus musculus albus are selected, female, weight 18˜22 g, […], and each group of 10 mice, said tested groups comprising:
Each group of animals is pasted for 12 h, but drinking ad libitum. Mice are placed on a homoiothermal hot plate (55±0.5[…]), and the time of occurrence of licking foot is recorded as pain threshold. Appropriate mice (whose reaction time of pain is less than 60 seconds) are selected and randomly divided into groups, and pain thresholds are measured twice before administration and the average value is used as base pain threshold. At 0.5 h and 1 hour after intragastric administration of corresponding drugs, the pain threshold of each mouse is measured (if there are no reaction of pain in 60 seconds, then the threshold is considered as 60 second).
Using Microsoft EXCEL software, the average value of pain threshold of each tested group and the average value of control group are performed t-test analysis, and P<0.05 is considered as statistically significant difference.

Cox-1 = biological target: T1, Cox-1 (Ovis aries, UniProt P05979); assay: inhibiting activity to COX-1 (TMPD colorimetric, 590 nm); type: biochemical; conditions: tested at 300, 100, 30, 10 μmol/L (positive control 100, 30, 10, 3)
T1 construct: purchased Cayman, USA
T1 sequence (P05979 25-600): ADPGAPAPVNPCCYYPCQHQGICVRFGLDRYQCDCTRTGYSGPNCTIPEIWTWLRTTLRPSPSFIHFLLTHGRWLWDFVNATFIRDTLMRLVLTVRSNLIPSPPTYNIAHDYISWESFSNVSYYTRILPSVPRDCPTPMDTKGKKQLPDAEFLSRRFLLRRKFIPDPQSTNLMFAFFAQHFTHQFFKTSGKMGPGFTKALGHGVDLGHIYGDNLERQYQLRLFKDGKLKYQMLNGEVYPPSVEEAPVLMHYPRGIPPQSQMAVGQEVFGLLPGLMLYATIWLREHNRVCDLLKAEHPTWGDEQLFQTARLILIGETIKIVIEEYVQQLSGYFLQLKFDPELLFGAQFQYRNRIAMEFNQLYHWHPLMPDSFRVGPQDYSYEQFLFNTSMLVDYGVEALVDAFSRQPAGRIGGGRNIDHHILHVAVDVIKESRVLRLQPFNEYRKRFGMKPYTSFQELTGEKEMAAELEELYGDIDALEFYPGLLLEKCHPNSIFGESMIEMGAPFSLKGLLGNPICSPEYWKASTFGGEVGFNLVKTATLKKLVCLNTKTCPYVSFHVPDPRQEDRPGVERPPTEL
Protocol: 2.5.1 The Inhibiting Activity to COX-1/COX-2
(1) In 220 ul of reaction system, mixed buffer (1×), heme, COX-1/COX-2, and the compound to be tested, are sequentially added, and are incubated for 5 minutes at 25° C.;
(2) Adding chromogenic substrate (TMPD) and arachidonic acid;
(3) Carefully shaking the plate for several seconds, then incubating for 15 minutes at 25° C.;
(4) Detecting absorption value at 590 nm.
Fitting data of concentration (μmol/L) and corresponding inhibition rate (%) via Microsoft EXCEL software to get a trendline, so as to obtain the half-effective inhibiting concentration (IC50) of each tested enzyme.

[2] = system: auricle tumefaction of mice caused by xylene; assay: auricle tumefaction of mice caused by xylene; type: in vivo; conditions: 3 h after xylene
Protocol: 90 healthy Kunming species of Mus musculus albus are selected, male, weight 18˜22 g, totally 9 tested groups, and each group of 10 mice, said tested groups comprising:
At 0.5 h before modeling, groups (8) and (9) are administrated tested drugs, and other groups are administrated tested drugs at 1 h before modeling. During modeling, the right ears of mice are coated with xylene at concentration of 30 μl/per ear to inflame the ear, and the left ears are performed no treatment. Once 3 h after coating xylene, the animals are sacrificed, and two ears of each mouse are cut, and ear wafers are obtained by making holes at the same positions of ears with puncher with diameter of 8 mm, and then are weighted via an electronic balance.
The tumefaction degree refers to the weight difference of the weight of inflamed ear wafer minus non-inflamed ear wafer. The tumefaction rate tumefaction degree/the weight of normal ear wafer×100‰ The average value of the tumefaction degree and tumefaction rate of each tested group is compared, so as to obtain the ability of anti-inflammation of each tested drug.
Using Microsoft EXCEL software, the average value of tumefaction degree of each tested group and the average value of control group are analyzed by means of t-test, and P<0.05 is considered as statistically significant difference.

SD rats [3] = assay: toxicity test in SD rats, four-week consecutive intragastric administration; conditions: for animals dead during 4 weeks administration: 10 rats per group; for nontoxic dosage: four-week consecutive intragastric administration
Protocol: 2. […] The tested samples are formulated into suspensions by milling with 0.5% CMC—Na; intragastric administration every day (10 ml/kg) for consecutive 4 weeks; on each day, after administration, the general conditions of the animals are observed, and weight and amount of ingestion are determined once every week. In 24 hours after the last administration, the rats are fasted overnight, blood samples are withdrawn via femoral arteries, and the rats are dissected, and the indexes of blood cytology and biochemics, gloss anatomy and histopathological examination are preformed.

[4] = system: writhing in mice induced by acetic acid; assay: writhing in mice induced by acetic acid; type: in vivo; conditions: for ED50: Mus musculus, read-out: ED50 (mg/kg) of inhibition of writhing; for maximum inhibitory rate (%) on mouse writhing: ig 1 h before 0.6% acetic acid ip, maximum of three dose groups (30, 10, 3 mg/kg; R 90, 30, 10 mg/kg), n=10
Protocol: For each group, the required weights of drugs are weighted, and are milled with 0.5% CMC—Na to required concentration ready-for-use.
Each group of animals is fasted for 12 h, but drinking ad libitum. At 1 hour after intragastric administration of corresponding drugs, 0.6% acetic acid (0.2 ml/per) is intraperitoneally injected, and the number of writhing of mice in 15 min after injection are recored. The mice with waist muscle repeat shrinkage, bump back, rump torsion and posterior limb stretch are used as writhing positive animals. Inhibition rates of drugs on writhing are calculated based on the following formula:
Inhibition rate (%)=[(number of writhing of the control group−number of writhing of administrated group)/number of writhing of the control group]×100%
Inhibition rate of each dose-group on writhing (%) is obtained by means of above method. Fitting data of dosage (mg/kg) and corresponding inhibition rate (%) via Microsoft EXCEL software to get a trendline, so as to obtain the half-effective inhibiting dose (ED50) of each tested group on writhing.

SD rats [5] = assay: long-term toxicity test in SD rats, thirteen-week consecutive intragastric administration and four-week convalescence; conditions: for nontoxic dosage: 13-week consecutive intragastric administration
Protocol: 2. […] The tested samples are formulated into suspensions by milling with 0.5% CMC—Na; intragastric administration (10 ml/kg) every day for consecutive 13 weeks; on each day, after administration, the general conditions of the animals are observed, and weight and amount of ingestion are determined once every week. In 24 hours after the last administration, half of rats in each tested group are fasted overnight, blood samples are withdrawn via femoral arteries, and the rats are dissected, and the indexes of blood cytology and biochemics, gloss anatomy and histopathological examination are preformed. The administration to remaining half rats is stopped, and the convalescence is observed; general conditions are observed and weight and amount of ingestion are determined once every week. After 4 weeks, the observation is complete, and the half of rats in each tested group are fasted overnight, blood samples are withdrawn via femoral arteries, and the rats are dissected, and the indexes of blood cytology and biochemics, gloss anatomy and histopathological examination are preformed.

SMILES	Com. Vs. S (multiple) (ICR mice)	pain threshold(s) 0 h ([1]; 40 mg/kg ig) [s]	pain threshold(s) 0.5 h ([1]; 40 mg/kg ig) [s]	pain threshold(s) 1 h ([1]; 40 mg/kg ig) [s]	pain threshold(s) 0 h ([1]; 80 mg/kg ig) [s]	pain threshold(s) 0.5 h ([1]; 80 mg/kg ig) [s]	pain threshold(s) 1 h ([1]; 80 mg/kg ig) [s]	IC50 (Cox-1) [µM]	tumefaction degree ([2]; 10 mg/kg ig) [mg]	tumefaction degree ([2]; 20 mg/kg ig) [mg]	animals dead during 4 weeks administration (SD rats [3]; 80 mg/kg ig daily)	nontoxic dosage (SD rats [3]; rats) [mg/kg]	ED50 [4] [mg/kg]	maximum inhibitory rate (%) on mouse writhing [4] [%]	nontoxic dosage (SD rats [5]; rats) [mg/kg]	LD50 at 14 days (in vivo; ICR) [mg/kg]	other results
CC(C(=O)O)c1ccc2c(c1)CC(=O)c1ccccc1S2 (racemic) [RS, 10,11-dihydro-alpha-methyl-10-oxo-dibenzo[b,f]tiazem-2-acetic acid, reference compound]	1.2	12.8 ± 3.7	9.9 ± 2.7	10.7 ± 5.7	12.7 ± 3.1	11.7 ± 5.2	9.6 ± 3.5	153	5.2 ± 2.9	3.7 ± 2.5	2 animals	40	9.2	63.6	25		LD50 at 14 days (in vivo): 327 ± 30.7 mg/kg; gastrointestinal tract toxicity (SD rats [3]; four-week ig, rats, S 80, 40, RS 80, R 480, 240, 120, R:S=6:1 320, 160, 80 mg/kg): produces significant gastrointestinal tract toxicity; animals dead during thirteen-week administration (SD rats [5]; 50 mg/kg ig daily, 20 rats per group): 2 animals; gastrointestinal tract toxicity (SD rats [5]; 13-week ig, rats, S 50, 25, RS 50, R 400, 200, 100, R:S=6:1 200, 100, 50 mg/kg): produces significant gastrointestinal tract toxicity
C[C@@H](C(=O)O)c1ccc2c(c1)CC(=O)c1ccccc1S2 [R, R-10,11-dihydro-alpha-methyl-10-oxo-dibenzo[b,f]tiazem-2-acetic acid]	14.9	17.6 ± 13.8	12.0 ± 7.8		21.5 ± 15.5		17.5 ± 12.3	> 300				240	25.4	71.3	200	3990 ± 153	pain threshold(s) 0 h ([1]; 160 mg/kg ig): 22.0 ± 4.9 s; pain threshold(s) 0.5 h ([1]; 160 mg/kg ig): 24.1 ± 15.1 s; pain threshold(s) 1 h ([1]; 160 mg/kg ig): 27.3 ± 11.9 s; tumefaction degree ([2]; 20 mg/kg ip): 3.5 ± 2.0 mg; tumefaction degree ([2]; 40 mg/kg ig): 3.8 ± 2.8 mg; tumefaction degree ([2]; 40 mg/kg ip): 2.3 ± 1.8 mg; tumefaction degree ([2]; 80 mg/kg ig): 2.5 ± 1.4 mg
C[C@H](C(=O)O)c1ccc2c(c1)CC(=O)c1ccccc1S2 [S, S-10,11-dihydro-alpha-methyl-10-oxo-dibenzo[b,f]tiazem-2-acetic acid]	1.0	12.9 ± 5.0	10.8 ± 2.7	10.6 ± 4.6	13.6 ± 9.6	12.7 ± 6.9	7.9 ± 1.8	186	4.9 ± 2.3	3.1 ± 3.2	four	20	8.6	80.1	12.5	268 ± 22.2	animals dead during 4 weeks administration (SD rats [3]; 40 mg/kg ig daily): one
